According to US20240308998A1, “PYRROLOPYRIDONE DERIVATIVES USEFUL IN THE TREATMENT OF CANCER” (Tay Therapeutics Limited, priority 2021, published 2024):

What was measured:
BRD4 BD1 = molecular target: T1, BRD4 BD1 (Homo sapiens, UniProt O60885); experiment: NanoBRET bromodomain assay, BRD4 BD1; type: cell-based; conditions: HEK293 cells transfected with NanoLuc-BRD4-BD1
T1 construct: HEK293 cells were transfected using NanoLuc-BRD4-BD1 or NanoLuc-BRD4-BD2 fusion vectors; host or cells: HEK293
Procedure: (§1) HEK293 cells were transfected using NanoLuc-BRD4-BD1 or NanoLuc-BRD4-BD2 fusion vectors and incubated at 37° C. in an atmosphere of 5% CO2 for 20-24 hours. The transfected cells were then dispensed into 96-well plates using 90 μl cell suspension per well containing 2×10^5 cells/ml in Opti-MEM and 1x final concentration of tracer. 90 μl per well of cell suspension without tracer was also dispensed into at least 3 wells as “No tracer control samples” for background correction. Serially diluted test compounds were prepared at 1000× concentration in DMSO and further diluted to 10× concentration in Opti-MEM. 10 μl per well of the serially diluted 10× test compound was added to the 96-well plates containing cells with 1x tracer. Plates were then incubated at 37° C.+5% C02 incubator for 2 hours. Immediately prior to BRET measurements, a 3x solution consisting of 1:166 dilution of Nano-Glo® Substrate plus a 1:500 dilution of Extracellular NanoLuc Inhibitor in Opti-MEM was prepared and 50 μl per well was added to the cells. Donor emission (450 nm) and acceptor emission (610 nm) were measured using PHERAstar (BMG LabTech). For data analysis, the raw BRET ratio was generated and converted to milliBRET units with background correction using the formula: [(Acceptorsample/Donorsample)−(Acceptorno tracer control/Donorno tracer control)]×1000. The mBU data was plotted as a function of compound concentration and IC50s for BRET assay were determined by nonlinear regression analysis of concentration response curves using the GraphPad Prism software.

BRD4 BD2 = molecular target: T2, BRD4 BD2 (Homo sapiens, UniProt O60885); experiment: NanoBRET bromodomain assay, BRD4 BD2; type: cell-based; conditions: for Fold selectivity BRD4 BD1/BD2: IC50 BD1/IC50 BD2; for IC50: NanoBRET, HEK293 cells transfected with NanoLuc-BRD4-BD2
T2 construct: HEK293 cells were transfected using NanoLuc-BRD4-BD1 or NanoLuc-BRD4-BD2 fusion vectors; host or cells: HEK293
Procedure: as §1
Fold Selectivity Calculated (IC50 BD1/IC50 BD2).

| SMILES | IC50 (BRD4 BD1) [µM] | Fold selectivity BRD4 BD1/BD2 (BRD4 BD2) | IC50 (BRD4 BD2) [µM] |
| --- | --- | --- | --- |
| Cc1cccc(C)c1Oc1cn(C)c(=O)cc1-c1cn(C)c(=O)c2[nH]c(-c3c(F)cccc3F)cc12 [Example 37, 2-(2,6-difluorophenyl)-4-(5-(2,6-dimethylphenoxy)-1-methyl-2-oxo-1,2-dihydropyridin-4-yl)-6-methyl-1,6-dihydro-7H-pyrrolo[2,3-c] pyridin-7-one] | > 1 | xx (Fold >50 and ≤200) | 0.05 to 0.2 |
| Cc1cccc(C)c1Oc1cn(C2COC2)c(=O)cc1-c1cn(C)c(=O)c2[nH]c(-c3cnn(C)c3C)cc12 [Example 40, 2-(1,5-dimethyl-1H-pyrazol-4-yl)-4-(5-(2,6-dimethylphenoxy)-1-(oxetan-3-yl)-2-oxo-1,2-dihydropyridin-4-yl)-6-methyl-1,6-dihydro-7H-pyrrolo[2,3-c] pyridin-7-one] | 0.05 to 0.5 | x (Fold >2 and ≤50) | ≤ 0.05 |
| Cc1cccc(C)c1Oc1cn(C2CNC2)c(=O)cc1-c1cn(C)c(=O)c2[nH]c(-c3cn(C(C)C)nc3C)cc12 [Example 42, 4-(1-(azetidin-3-yl)-5-(2,6-dimethylphenoxy)-2-oxo-1,2-dihydropyridin-4-yl)-2-(1-isopropyl-3-methyl-1H-pyrazol-4-yl)-6-methyl-1,6-dihydro-7H-pyrrolo[2,3-c]pyridin-7-one] | > 1 | xx (Fold >50 and ≤200) | 0.05 to 0.2 |
| Cc1cccc(C)c1Oc1cn(C2CNC2)c(=O)cc1-c1cn(C)c(=O)c2[nH]c(-c3cnn(C(C)C)c3C)cc12 [Example 43, 4-(1-(azetidin-3-yl)-5-(2,6-dimethylphenoxy)-2-oxo-1,2-dihydropyridin-4-yl)-2-(1-isopropyl-5-methyl-1H-pyrazol-4-yl)-6-methyl-1,6-dihydro-7H-pyrrolo[2,3-c] pyridin-7-one] | > 1 | x (Fold >2 and ≤50) | > 1 |
| Cc1cccc(C)c1Oc1cn(C)c(=O)cc1-c1cn(C)c(=O)c2[nH]c(-c3ccccc3C#N)cc12 [Example 48, 2-{4-[5-(2,6-dimethylphenoxy)-1-methyl-2-oxopyridin-4-yl]-6-methyl-7-oxo-1H-pyrrolo[2,3-c]pyridin-2-yl}benzonitrile] | > 1 | xxx (Fold >200) | ≤ 0.05 |
| CC(C)n1cc(-c2cc3c(-c4cc(=O)n(C)cc4C4CCCC4)cn(C)c(=O)c3[nH]2)cn1 [Example 53, 4-(5-cyclopentyl-1-methyl-2-oxo-1,2-dihydropyridin-4-yl)-2-(1-isopropyl-1H-pyrazol-4-yl)-6-methyl-1,6-dihydro-7H-pyrrolo[2,3-c]pyridin-7-one] | 0.05 to 0.5 | xx (Fold >50 and ≤200) | ≤ 0.05 |
| C#Cc1cn(C)c(=O)cc1-c1cn(C)c(=O)c2[nH]c(-c3cnn(C(C)C)c3)cc12 [Example 56, 5-ethynyl-4-[2-(1-isopropylpyrazol-4-yl)-6-methyl-7-oxo-1H-pyrrolo[2,3-c]pyridin-4-yl]-1-methylpyridin-2-one] | 0.05 to 0.5 | x (Fold >2 and ≤50) | ≤ 0.05 |
| CC#Cc1cn(C)c(=O)cc1-c1cn(C)c(=O)c2[nH]c(-c3cc(C)nc(C)c3)cc12 [Example 58, 4-[2-(2,6-dimethylpyridin-4-yl)-6-methyl-7-oxo-1H-pyrrolo[2,3-c]pyridin-4-yl]-1-methyl-5-(prop-1-yn-1-yl)pyridin-2-one] | > 1 | xxx (Fold >200) | ≤ 0.05 |
| Cc1cccc(C)c1Oc1cn(C)c(=O)cc1-c1cn(C)c(=O)c2[nH]c(-c3cnn(CS(C)(=O)=O)c3)cc12 [Example 65, 4-(5-(2,6-dimethylphenoxy)-1-methyl-2-oxo-1,2-dihydropyridin-4-yl)-6-methyl-2-(1-((methylsulfonyl)methyl)-1H-pyrazol-4-yl)-1,6-dihydro-7H-pyrrolo[2,3-c]pyridin-7-one] | > 1 | x (Fold >2 and ≤50) | ≤ 0.05 |

Results, then the compound that gave them:

| IC50 (BRD4 BD1) [µM] | Fold selectivity BRD4 BD1/BD2 (BRD4 BD2) | IC50 (BRD4 BD2) [µM] | SMILES |
| --- | --- | --- | --- |
| > 1 | xx (Fold >50 and ≤200) | 0.05 to 0.2 | Cc1cccc(C)c1Oc1cn(C)c(=O)cc1-c1cn(C)c(=O)c2[nH]c(-c3ccnnc3)cc12 [Example 27, 4-(5-(2,6-dimethylphenoxy)-1-methyl-2-oxo-1,2-dihydropyridin-4-yl)-6-methyl-2-(pyridazin-4-yl)-1,6-dihydro-7H-pyrrolo[2,3-c] pyridin-7-one] |
| > 1 | xxx (Fold >200) | ≤ 0.05 | Cc1cccc(C)c1Oc1cn(C)c(=O)cc1-c1cn(C)c(=O)c2[nH]c(-c3cc(C(F)(F)F)ccc3F)cc12 [Example 34, 4-(5-(2,6-dimethylphenoxy)-1-methyl-2-oxo-1,2-dihydropyridin-4-yl)-2-(2-fluoro-5-(trifluoromethyl)phenyl)-6-methyl-1,6-dihydro-7H-pyrrolo[2,3-c] pyridin-7-one] |
| > 1 | xxx (Fold >200) | ≤ 0.05 | Cc1cc(-c2cc3c(-c4cc(=O)n(C)cc4Oc4c(C)cccc4C)cn(C)c(=O)c3[nH]2)ncn1 [Example 38, 4-(5-(2,6-dimethylphenoxy)-1-methyl-2-oxo-1,2-dihydropyridin-4-yl)-6-methyl-2-(6-methylpyrimidin-4-yl)-1,6-dihydro-7H-pyrrolo[2,3-c] pyridin-7-one] |
| > 1 | xx (Fold >50 and ≤200) | 0.05 to 0.2 | Cc1cccc(C)c1Oc1cn(C)c(=O)cc1-c1cn(C)c(=O)c2[nH]c(-c3ncccn3)cc12 [Example 39, 4-(5-(2,6-dimethylphenoxy)-1-methyl-2-oxo-1,2-dihydropyridin-4-yl)-6-methyl-2-(pyrimidin-2-yl)-1,6-dihydro-7H-pyrrolo[2,3-c] pyridin-7-one] |
| > 1 | xx (Fold >50 and ≤200) | 0.05 to 0.2 | Cc1cccc(C)c1Oc1cn(C2COC2)c(=O)cc1-c1cn(C)c(=O)c2[nH]c(-c3ccccc3F)cc12 [Example 41, 4-(5-(2,6-dimethylphenoxy)-1-(oxetan-3-yl)-2-oxo-1,2-dihydropyridin-4-yl)-2-(2-fluorophenyl)-6-methyl-1,6-dihydro-7H-pyrrolo[2,3-c] pyridin-7-one] |
| 0.5 to 1 | x (Fold >2 and ≤50) | ≤ 0.05 | Cc1cc(-c2cc3c(-c4cc(=O)n(C)cc4Oc4c(C)cccc4C)cn(C)c(=O)c3[nH]2)ccn1 [Example 45, 4-(5-(2,6-dimethylphenoxy)-1-methyl-2-oxo-1,2-dihydropyridin-4-yl)-6-methyl-2-(2-methylpyridin-4-yl)-1,6-dihydro-7H-pyrrolo[2,3-c]pyridin-7-one] |
| > 1 | xxx (Fold >200) | ≤ 0.05 | Cc1cccc(C)c1Oc1cn(C)c(=O)cc1-c1cn(C)c(=O)c2[nH]c(-c3cc(F)ccc3F)cc12 [Example 46, 2-(2,5-difluorophenyl)-4-(5-(2,6-dimethylphenoxy)-1-methyl-2-oxo-1,2-dihydropyridin-4-yl)-6-methyl-1,6-dihydro-7H-pyrrolo[2,3-c]pyridin-7-one] |
| 0.05 to 0.5 | x (Fold >2 and ≤50) | ≤ 0.05 | Cc1cc(-c2cc3c(-c4cc(=O)n(C)cc4C4CCCC4)cn(C)c(=O)c3[nH]2)n(C)n1 [Example 52, 5-cyclopentyl-4-[2-(2,5-dimethylpyrazol-3-yl)-6-methyl-7-oxo-1H-pyrrolo[2,3-c]pyridin-4-yl]-1-methylpyridin-2-one] |
| 0.05 to 0.5 | xx (Fold >50 and ≤200) | ≤ 0.05 | Cc1cc(-c2cc3c(-c4cc(=O)n(C)cc4C4CCCC4)cn(C)c(=O)c3[nH]2)cc(C)n1 [Example 54, 5-cyclopentyl-4-[2-(2,6-dimethylpyridin-4-yl)-6-methyl-7-oxo-1H-pyrrolo[2,3-c]pyridin-4-yl]-1-methylpyridin-2-one] |
| 0.05 to 0.5 | x (Fold >2 and ≤50) | ≤ 0.05 | Cn1cc(C2CCCC2)c(-c2cn(C)c(=O)c3[nH]c(-c4ccccc4)cc23)cc1=O [Example 55, 5-cyclopentyl-1-methyl-4-{6-methyl-7-oxo-2-phenyl-1H-pyrrolo[2,3-c]pyridin-4-yl}pyridin-2-one] |
| 0.05 to 0.5 | x (Fold >2 and ≤50) | ≤ 0.05 | CC#Cc1cn(C)c(=O)cc1-c1cn(C)c(=O)c2[nH]c(-c3cnn(C(C)C)c3)cc12 [Example 57, 4-[2-(1-isopropylpyrazol-4-yl)-6-methyl-7-oxo-1H-pyrrolo[2,3-c]pyridin-4-yl]-1-methyl-5-(prop-1-yn-1-yl)pyridin-2-one] |
